Test results reported in publication PMC7859945 (ACS Omega, 2021).
Structures can show the parent of a compound that is named as a salt.

How the values were obtained:
[1] = system: triple-negative breast cancer; details: mouse model of triple-negative breast cancer, 250 mg/kg; cited from earlier work
[2] = system: various breast cancer cells; details: various breast cancer cells in vitro; cited from earlier work
[3] = Kinetic solubility study of metformin salts in lipid excipients; details: for solubility in lipid vehicles: Miglyol 812N and Capryol 90 (text statement for both); for solubility (mg/g) of lipid excipient: medium-chain triglyceride (Miglyol 812N), kinetic solubility, visual inspection
Solubility in water = format: physicochemical; details: data not shown
[4] = cited from earlier work
[5] = system: MYCN-2 and SK-N-Be2c neuroblastoma cells; assay: In vitro cytotoxicity, SRB assay, statements spanning both neuroblastoma lines; format: cell-based, human; details: MYCN-2 and SK-N-Be2c cells
MYCN-2 cells = assay: In vitro cytotoxicity, SRB assay, MYCN-2 cells; format: cell-based; details: Homo sapiens, read-out: IC50, cytotoxicity (MYCN)
cancer cells = details: read-out: IC50, anticancer activity; cited from earlier work
SK-N-Be2c cells = assay: In vitro cytotoxicity, SRB assay, SK-N-Be2c cells; format: cell-based; details: Homo sapiens, SK-N-BE(2)-C, read-out: IC50, cytotoxicity (Be2c)

CCCC(=O)O.CN(C)C(=N)N=C(N)N [metformin butyrate]
anticancer activity versus metformin [1]: significantly higher anticancer activity than metformin | improvement of the potency of metformin [2]: 2- to 10 fold

CN(C)C(=N)NC(=N)N.C[C@H](CCC(=O)O)[C@H]1CC[C@H]2[C@@H]3[C@H](O)C[C@@H]4C[C@H](O)CC[C@]4(C)[C@H]3C[C@H](O)[C@]12C [metformin cholate, Metformin Cholate]
solubility in lipid vehicles [3]: < 5 mg/g | solubility (mg/g) of lipid excipient [3]: <5 mg/g | water solubility (Solubility in water): > 1000 µg/mL

CCCCC(CC)COC(=O)CC(C(=O)OCC(CC)CCCC)S(=O)(=O)O.CN(C)C(=N)N=C(N)N (stereo not drawn) [metformin docusate, Metformin Docusate]
solubility in medium-chain triglycerides and propylene glycol fatty acid esters [4]: > 75 mg/g | improvement in anticancer potency (lower IC50) compared to metformin hydrochloride [5]: 700- to 4300 fold | solubility in lipid vehicles [3]: > 200 mg/g | solubility (mg/g) of lipid excipient [3]: >200 mg/g

CN(C)C(=N)NC(=N)N.NCC1(CC(=O)O)CCCCC1 [metformin gabapentin salt]
improvement of the potency of metformin [2]: 2- to 10 fold

CN(C)C(=N)NC(=N)N.NCCCC(=O)O [metformin gamma-aminobutyric acid salt]
improvement of the potency of metformin [2]: 2- to 10 fold

CN(C)C(=N)N=C(N)N [metformin hydrochloride, Metformin hydrochloride]
IC50 (MYCN-2 cells): > 100 mM | IC50 (cancer cells): > 1 mM | IC50 (SK-N-Be2c cells): > 100 mM

CC(C)C[C@H](CN)CC(=O)O.CN(C)C(=N)NC(=N)N [metformin pregabalin salt]
improvement of the potency of metformin [2]: 2- to 10 fold
